# Source: patent US20240246932A1 (Merck Sharp & Dohme LLC, priority 2021, published 2024)
# Biological target: human NaV 1.8 channels stably expressed in HEK 293 cells (Homo sapiens (Human), UniProt Q9Y5Y9)
# Test: Nav1.8 Qube automated patch-clamp assay
# Format: cell-based
# Conditions: human NaV1.8 in HEK 293 cells, whole-cell voltage clamp, room temperature; read-out: IC50 values (nM) for Examples in the Nav1.8 Qube Assay
# In short: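 Whole-cell voltage clamp at room temperature on HEK293 cells; from −90 mV, a 10 s 1 Hz train of 20 ms pulses to 10 mV (repolarising to −67 mV) was applied. Peak currents at pulses 1 and 10 gave resting- and inactivated-state inhibition; IC50 fitted by Hill equation. Internal CsF/CsCl buffer.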
# human NaV 1.8 channels stably expressed in HEK 293 cells, sequence (Q9Y5Y9 whole entry): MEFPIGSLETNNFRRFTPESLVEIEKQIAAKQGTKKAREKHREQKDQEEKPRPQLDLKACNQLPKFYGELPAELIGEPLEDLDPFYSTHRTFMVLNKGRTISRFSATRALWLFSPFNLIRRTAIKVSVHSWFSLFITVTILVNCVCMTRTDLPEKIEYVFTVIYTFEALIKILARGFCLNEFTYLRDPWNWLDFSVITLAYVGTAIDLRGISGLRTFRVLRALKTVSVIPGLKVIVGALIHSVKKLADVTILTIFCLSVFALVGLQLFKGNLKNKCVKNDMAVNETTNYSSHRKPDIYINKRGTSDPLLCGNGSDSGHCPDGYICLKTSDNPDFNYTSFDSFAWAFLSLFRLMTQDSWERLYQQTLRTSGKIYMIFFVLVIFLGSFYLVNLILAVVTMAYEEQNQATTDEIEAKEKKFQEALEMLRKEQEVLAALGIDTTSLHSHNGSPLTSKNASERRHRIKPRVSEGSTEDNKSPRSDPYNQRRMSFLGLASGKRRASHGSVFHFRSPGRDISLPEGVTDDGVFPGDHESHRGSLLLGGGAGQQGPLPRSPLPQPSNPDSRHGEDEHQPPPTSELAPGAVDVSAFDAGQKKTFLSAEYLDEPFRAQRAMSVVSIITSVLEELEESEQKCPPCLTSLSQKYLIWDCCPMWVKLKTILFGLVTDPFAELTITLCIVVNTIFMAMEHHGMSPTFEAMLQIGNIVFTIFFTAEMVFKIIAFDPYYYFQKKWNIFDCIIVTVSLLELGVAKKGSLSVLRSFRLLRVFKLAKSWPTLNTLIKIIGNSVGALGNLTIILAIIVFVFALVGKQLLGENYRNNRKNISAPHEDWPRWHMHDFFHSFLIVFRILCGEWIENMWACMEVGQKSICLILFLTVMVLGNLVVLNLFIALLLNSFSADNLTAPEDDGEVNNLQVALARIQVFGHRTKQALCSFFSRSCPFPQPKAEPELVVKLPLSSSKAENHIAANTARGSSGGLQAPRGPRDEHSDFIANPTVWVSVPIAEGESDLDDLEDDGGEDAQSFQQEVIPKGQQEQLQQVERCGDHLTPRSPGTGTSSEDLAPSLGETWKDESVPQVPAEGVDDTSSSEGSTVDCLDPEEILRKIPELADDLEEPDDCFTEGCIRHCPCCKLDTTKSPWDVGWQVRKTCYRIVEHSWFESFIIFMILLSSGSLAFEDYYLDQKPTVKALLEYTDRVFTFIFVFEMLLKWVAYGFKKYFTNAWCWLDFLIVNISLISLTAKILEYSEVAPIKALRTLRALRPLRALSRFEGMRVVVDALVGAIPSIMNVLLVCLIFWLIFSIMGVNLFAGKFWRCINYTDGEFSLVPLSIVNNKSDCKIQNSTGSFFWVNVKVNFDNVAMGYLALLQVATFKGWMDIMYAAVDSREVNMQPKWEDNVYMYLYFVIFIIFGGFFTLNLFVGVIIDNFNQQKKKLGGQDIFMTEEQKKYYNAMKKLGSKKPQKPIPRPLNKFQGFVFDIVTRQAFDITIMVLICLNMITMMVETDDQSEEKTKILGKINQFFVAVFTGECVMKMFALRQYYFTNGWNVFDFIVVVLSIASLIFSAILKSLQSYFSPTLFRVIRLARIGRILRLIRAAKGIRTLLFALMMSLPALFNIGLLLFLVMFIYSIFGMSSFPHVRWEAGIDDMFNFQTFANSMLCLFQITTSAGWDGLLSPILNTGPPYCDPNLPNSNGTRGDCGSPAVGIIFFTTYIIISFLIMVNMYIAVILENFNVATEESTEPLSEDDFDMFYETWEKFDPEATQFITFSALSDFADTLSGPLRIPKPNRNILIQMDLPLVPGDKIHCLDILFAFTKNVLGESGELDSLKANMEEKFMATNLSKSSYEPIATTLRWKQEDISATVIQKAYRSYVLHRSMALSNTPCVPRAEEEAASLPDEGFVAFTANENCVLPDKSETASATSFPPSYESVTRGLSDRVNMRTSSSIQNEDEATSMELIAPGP
row,IC50,Structure (SMILES)
1,3.59 nM,"C[C@@H]1C(=O)NCCN1C(=O)NC(c1ccc(F)c(Cl)c1)c1cc(C(F)(F)F)nn1C (single isomer, unassigned) [Example 86A, (2R)-N-((R or S)-(3-chloro-4-fluoro-phenyl)(1-methyl-3-(trifluoro-methyl)-1H-pyrazol-5-yl)methyl)-2-methyl-3-oxopiperazine-1-carboxamide]"
2,154 nM,"C[C@@H]1C(=O)NCCN1C(=O)NC(c1ccc(F)c(Cl)c1)c1cc(C(F)(F)F)nn1C (single isomer, unassigned) [Example 86B, (2R)-N-((S or R)-(3-chloro-4-fluoro-phenyl)(1-methyl-3-(trifluoro-methyl)-1H-pyrazol-5-yl)methyl)-2-methyl-3-oxo-piperazine-1-carboxamide]"
3,124 nM,"C[C@@H]1C(=O)NCCN1C(=O)NC(c1ccc(OC(F)(F)F)cc1)c1cc(C(F)(F)F)n[nH]1 (single isomer, unassigned) [Example 87A, (2R)-2-methyl-3-oxo-N-((R or S)-(4-(trifluoromethoxy)phenyl)(3-(trifluoromethyl)-1H-pyrazol-5-yl)methyl)piperazine-1-carboxamide]"
4,10.8 nM,"C[C@@H]1C(=O)NCCN1C(=O)NC(c1ccc(OC(F)(F)F)cc1)c1cc(C(F)(F)F)n[nH]1 (single isomer, unassigned) [Example 87B, (2R)-2-methyl-3-oxo-N-((S or R)-(4-(trifluoromethoxy)phenyl)(3-(trifluoromethyl)-1H-pyrazol-5-yl)methyl)piperazine-1-carboxamide]"

# More lines, now with the values behind:
row,Structure (SMILES),IC50
1,"C[C@@H]1C(=O)NCCN1C(=O)NC(c1ccc(C(F)(F)F)nc1)c1ccc(Cl)c(C(F)(F)F)n1 (single isomer, unassigned) [Example 81A, (2R)-N-((R or S)-(5-chloro-6-(trifluoromethyl)pyridin-2-yl)(6-(trifluoro-methyl)pyridin-3-yl)methyl)-2-methyl-3-oxopiperazine-1-carboxamide]",8 nM
2,"C[C@@H]1C(=O)NCCN1C(=O)NC(c1ccc(C(F)(F)F)nc1)c1ccc(Cl)c(C(F)(F)F)n1 (single isomer, unassigned) [Example 81B, (2R)-N-((S or R)-(5-chloro-6-(trifluoromethyl)pyridin-2-yl)(6-(trifluoro-methyl)pyridin-3-yl)methyl)-2-methyl-3-oxopiperazine-1-carboxamide]",110 nM
3,"C[C@@H]1C(=O)NCCN1C(=O)NC(c1cnc(C(F)(F)F)c(Cl)c1)c1ccc(F)c(C(F)(F)F)n1 (single isomer, unassigned) [Example 82A]",17.4 nM
4,"C[C@@H]1C(=O)NCCN1C(=O)NC(c1cnc(C(F)(F)F)c(Cl)c1)c1ccc(F)c(C(F)(F)F)n1 (single isomer, unassigned) [Example 82B]",3.76 nM
5,"C[C@@H]1C(=O)NCCN1C(=O)NC(c1cnc(C(F)(F)F)c(Cl)c1)c1ccc(Cl)c(C(F)(F)F)n1 (single isomer, unassigned) [Example 83A]",6.51 nM
6,"C[C@@H]1C(=O)NCCN1C(=O)NC(c1cnc(C(F)(F)F)c(Cl)c1)c1ccc(Cl)c(C(F)(F)F)n1 (single isomer, unassigned) [Example 83B]",3.14 nM
7,"C[C@@H]1C(=O)NCCN1C(=O)NC(c1cnc(C(F)(F)F)c(Cl)c1)c1csc(C(F)(F)F)n1 (single isomer, unassigned) [Example 84A, (2R)-N-((R or S)-(5-chloro-6-(trifluoromethyl)pyridin-3-yl)(2-(trifluoromethyl)thiazol-4-yl)methyl)-2-methyl-3-oxopiperazine-1-carboxamide]",16.2 nM
8,"C[C@@H]1C(=O)NCCN1C(=O)NC(c1cnc(C(F)(F)F)c(Cl)c1)c1csc(C(F)(F)F)n1 (single isomer, unassigned) [Example 84B, (2R)-N-((S or R)-(5-chloro-6-(trifluoromethyl)pyridin-3-yl)(2-(trifluoromethyl)thiazol-4-yl)methyl)-2-methyl-3-oxopiperazine-1-carboxamide]",202 nM
9,"C[C@@H]1C(=O)NCCN1C(=O)NC(c1ccc(F)c(Cl)c1)c1cc(C(F)(F)F)n[nH]1 (single isomer, unassigned) [Example 85A]",57.8 nM
10,"C[C@@H]1C(=O)NCCN1C(=O)NC(c1ccc(F)c(Cl)c1)c1cc(C(F)(F)F)n[nH]1 (single isomer, unassigned) [Example 85B]",5.47 nM
